Assays:
Format in all cases: cell-based
[1] = molecular target: T1, PAR2 (HT-29 cells) (Homo sapiens, UniProt P55085); test: Ca FLIPR TETRA assay, ANTAGONIST mode, activator 8 μM SLIGKV; conditions: HT-29 cells, activator 8 μM SLIGKV; maximal antagonist concentration per Method (A: 0.1, 1 or 2 μM; B: 50 μM)
T1 construct: host or cells: HT-29
T1 sequence (P55085 26-397): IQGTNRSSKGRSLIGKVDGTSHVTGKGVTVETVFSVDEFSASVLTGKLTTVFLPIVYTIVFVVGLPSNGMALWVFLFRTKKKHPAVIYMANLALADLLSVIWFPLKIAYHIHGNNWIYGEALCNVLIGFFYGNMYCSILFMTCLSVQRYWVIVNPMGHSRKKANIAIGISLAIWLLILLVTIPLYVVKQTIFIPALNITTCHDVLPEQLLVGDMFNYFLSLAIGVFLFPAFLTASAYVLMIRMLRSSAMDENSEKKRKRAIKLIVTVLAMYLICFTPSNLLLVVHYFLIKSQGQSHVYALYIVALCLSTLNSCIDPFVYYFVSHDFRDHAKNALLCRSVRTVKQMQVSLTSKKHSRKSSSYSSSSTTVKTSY
Outline: (§1)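 Antagonist mode, HT-29: cells O/N 37 °C, 1% FBS; calcium 5 dye 45 min 37 °C + 15 min RT; cpd (DMSO, HBSS-diluted) 30 min RT; activator at final conc. (8 μM SLIGKV / 1 U/mL thrombin / 3.1 U/mL trypsin / 0.6 μM UTP); FLIPR Tetra Ca2+ read.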

[2] = molecular target: T1, PAR2 (HT-29 cells); test: Ca FLIPR TETRA assay, ANTAGONIST mode, activator 3.1 U/mL trypsin; conditions: HT-29 cells, activator 3.1 U/mL trypsin; maximal antagonist concentration per Method (A: 0.1, 1 or 2 μM; B: 50 μM)
Outline: as §1

[3] = tested on: Thrombin-stimulated Ca2+ response in HT-29 cells; test: Ca FLIPR TETRA assay, ANTAGONIST mode, activator 1 U/mL Thrombin; conditions: Homo sapiens; HT-29 cells, activator 1 U/mL Thrombin
Outline: as §1

[4] = tested on: UTP-stimulated Ca2+ response in HT-29 cells; test: Ca FLIPR TETRA assay, ANTAGONIST mode, activator 0.6 μM UTP; conditions: Homo sapiens; for IC50: HT-29 cells, activator 0.6 μM UTP; for inhibition at 50 µM: HT-29
Outline: as §1

| SMILES | IC50 [1] | IC50 [2] | IC50 [3] | IC50 [4] | inhibition at 50 µM [4] |
| --- | --- | --- | --- | --- | --- |
| CC(C)c1cc(-c2ccc(F)cc2)nc2cc(C(=O)N3CCN(C(=O)[C@@H](C)O)C[C@H]3C)oc12 [Example I-98] | 5.3 µM | 7 µM | 18 µM | 20 µM |  |
| CC(C)c1cc(-c2ccc(F)cc2)nc2cc(C(=O)N3CCN(C(=O)[C@H](O)CC(C)(C)C)C[C@H]3C)oc12 [Example I-99] | 0.062 µM | 0.43 µM | 3.9 µM |  | 63% |
| CC(C)c1cc(-c2ccc(F)cc2)nc2cc(C(=O)N3CCN(C(=O)C4(O)CCOCC4)C[C@H]3C)oc12 [Example I-100] | 9.1 µM | 11 µM | 16 µM | 13 µM |  |
| CC(C)c1cc(-c2ccc(F)cc2)nc2cc(C(=O)N3CCN(C(=O)C(C)(C)O)C[C@H]3C)oc12 [Example I-101] | 7.6 µM | 9.1 µM | 18 µM | 13 µM |  |
| CC(C)c1cc(-c2ccc(F)cc2)nc2cc(C(=O)N3CCN(C(=O)C4(O)CCC4)C[C@@H]3C)oc12 [Example I-102] | 4.7 µM | 5.2 µM | 16 µM | 5.4 µM |  |
| CC(C)c1cc(-c2ccc(F)cc2)nc2cc(C(=O)N3CCN(C(=O)[C@@H](C)O)C[C@@H]3C)oc12 [Example I-103] | 7.9 µM | 8.5 µM | 29 µM | 24 µM |  |
| CC(C)c1cc(-c2ccc(F)cc2)nc2cc(C(=O)N3CCN(C(=O)[C@H](O)CC(C)(C)C)C[C@@H]3C)oc12 [Example I-104] | 0.73 µM | 0.83 µM | 2.6 µM |  | 64% |
| CC(C)c1cc(-c2ccc(F)cc2)nc2cc(C(=O)N3CCN(C(=O)C4(O)CCOCC4)C[C@@H]3C)oc12 [Example I-105] | 8.7 µM | 7.7 µM | 12 µM | 15 µM |  |
| CC(C)c1cc(-c2ccc(F)cc2)nc2cc(C(=O)N3CCN(C(=O)C(C)(C)O)C[C@@H]3C)oc12 [Example I-106] | 7.8 µM | 7.7 µM | 15 µM | 14 µM |  |
| CCCS(=O)(=O)N1CCN(C(=O)c2cc3nc(-c4ccc(F)cc4)cc(C4(C)CC4)c3o2)C(C)(C)C1 [Example I-107] | 0.034 µM | 0.028 µM | > 50 µM | > 50 µM |  |
| CCOC(=O)N1CCN(C(=O)c2cc3nc(-c4ccc(F)cc4)cc(C4(C)CC4)c3o2)C(C)(C)C1 [Example I-108] | 0.0022 µM | 0.0018 µM | > 50 µM | > 50 µM |  |
| C[C@H]1CN(C(=O)c2cc3nc(-c4ccc(F)cc4)cc(C4(C)CC4)c3o2)CCN1C(=O)C(C)(C)O [Example I-109] | 2.3 µM | 3.4 µM | 12 µM | 11 µM |  |
| CC[C@@H](O)C(=O)N1CCN(C(=O)c2cc3nc(-c4ccc(F)cc4)cc(C4(C)CC4)c3o2)C[C@@H]1C [Example I-110] | 0.04 µM | 0.064 µM | 18 µM | 14 µM |  |
| C[C@H]1CN(C(=O)c2cc3nc(-c4ccc(F)cc4)cc(C4(C)CC4)c3o2)CCN1C(=O)C(O)C1CC1 (stereo partly shown) [Example I-111] | 0.0565 µM | 0.041 µM | 19 µM | 12 µM |  |
| CC(C)[C@@H](O)C(=O)N1CCN(C(=O)c2cc3nc(-c4ccc(F)cc4)cc(C4(C)CC4)c3o2)C[C@@H]1C [Example I-112] | 0.013 µM | 0.027 µM | 13 µM | 11 µM |  |
| CC(C)C[C@@H](O)C(=O)N1CCN(C(=O)c2cc3nc(-c4ccc(F)cc4)cc(C4(C)CC4)c3o2)C[C@@H]1C [Example I-113] | 0.011 µM | 0.002 µM | 17 µM | 12 µM |  |
| C[C@H]1CN(C(=O)c2cc3nc(-c4ccc(F)cc4)cc(C4(C)CC4)c3o2)CCN1C(=O)C(O)c1ccc(F)cc1 (stereo partly shown) [Example I-114] | 0.0022 µM | 0.0027 µM | 27 µM | 30 µM |  |
| C[C@H]1CN(C(=O)c2cc3nc(-c4ccc(F)cc4)cc(C4(C)CC4)c3o2)CCN1C(=O)C1CCC1 [Example I-115] | 0.046 µM | 0.092 µM | > 50 µM |  | 66% |
| C[C@H]1CN(C(=O)c2cc3nc(-c4ccc(F)cc4)cc(C4(C)CC4)c3o2)CCN1C(=O)C1CC1 [Example I-116] | 0.35 µM | 0.99 µM | 13 µM | 6.9 µM |  |

Source: US20180057505A1, “BICYCLIC HETEROARYL COMPOUNDS USEFUL AS INHIBITORS OF THE PAR-2 SIGNALING PATHWAY” (VERTEX PHARMACEUTICALS INCORPORATED, priority 2015, published 2018)
